Test results: patent publication US9572891B2, “Oligonucleotide conjugates” (Geron Corporation, priority 2001, dated 2017)
“And” between values parts separate entries of the source, which are not always exact repeats. Equal values may be shown once. Read-outs that look alike come from different tables or passages of the source.

Target: T1, telomerase (Homo sapiens, UniProt O14746)
T1 construct: made in house; host or cells: 293 cells over-expressing hTERT
Test: Bio-Tel FlashPlate telomerase inhibition assay
Type: biochemical
Experimental: Extracts used for screening telomerase inhibitors were routinely prepared from 293 cells over-expressing the protein catalytic subunit of telomerase (hTERT). […] 200 ml of packed cells (harvested from about 100 liters of culture) were resuspended in an equal volume of hypotonic buffer (10 mM Hepes pH 7.9, 1 mM MgCl2, 1 mM DTT, 20 mM KCl, 1 mM PMSF) and lysed using a dounce homogenizer. The glycerol concentration was adjusted to 10% and NaCl was slowly added to give a final concentration of 0.3 M. The lysed cells were stirred for 30 min and then pelleted at 100,000×g for 1 hr. Solid ammonium sulfate was added to the S100 supernatant to reach 42% saturation. The material was centrifuged; the pellet was resuspended in one fifth of the original volume and dialyzed against Buffer ‘A’ containing 50 mM NaCl. After dialysis the extract was centrifuged for 30 min at 25,000×g. Prior to affinity chromatography, Triton X-100™ (0.5%), KCl (0.3 M) and tRNA ([…]) were added. Affinity oligonucleotide (5′-biotinTEG-biotinTEG-biotinTEG-GTA GAC CTG TTA CCA guu agg guu ag 3′ [SEQ ID NO: 16]; lower case represents 2′ O-methyl ribonucleotides and upper case represents deoxynucleotides) was added to the extract (1 nmol per 10 ml of extract). After an incubation of 10 min at 30° C., Neutravidin beads (Pierce; 250 μl of a 50% suspension) were added and the mixture was rotated overnight at 4° C. The beads were pelleted and washed three times with Buffer ‘B’ containing 0.3 M KCl, twice with Buffer ‘B’ containing 0.6 M KCl, and twice more with Buffer B containing 0.3 M KCl. Telomerase was eluted in Buffer ‘B’ containing 0.3 M KCl, 0.15% Triton X-100™ and a 2.5 molar excess of displacement oligonucleotide (5′-CTAACCCTAACTGGTAACAGGTCTAC-3′ [SEQ ID NO: 17] at 0.5 ml per 125 μl of packed Neutravidin beads) for 30 min. at room temperature. A second elution was performed and pooled with the first. Purified extracts typically had specific activities of 10 fmol nucleotides incorporated/min/μl extract, or 200 nucleotides/min/mg total protein.
A suitable assay for detection and/or measurement of telomerase activity is based on a measurement of the addition of TTAGGG (SEQ ID NO. 8) telomeric repeats to a biotinylated telomerase substrate primer, a reaction catalyzed by telomerase. The biotinylated products are captured in streptavidin-coated microtiter plates. An oligonucleotide probe complementary to 3.5 telomere repeats labeled with ^33P is used for measuring telomerase products, as described below. Unbound probe is removed by washing and the amount of probe annealing to the captured telomerase products is determined by scintillation counting.
The data provided in Tables 1 and 2 below were obtained by performing the assay as described below: • 1. Oligonucleotide conjugates were stored as concentrated stocks and dissolved in PBS. • 2. For testing, the oligonucleotide conjugates were diluted to a 15× working stock in PBS and 2 μl was dispensed into two wells of a 96-well microtiter dish (assayed in duplicate). • 3. Telomerase extract was diluted to a specific activity of 0.04-0.09 fmol dNTP incorporated/min./μl in Telomerase Dilution Buffer and 18 μl added to each sample well to preincubate with compound for 30 minutes at room temperature. • 4. The telomerase reaction was initiated by addition of 10 μl Master Mix to the wells containing telomerase extract and oligonucleotide compound being tested. The plates were sealed and incubated at 37° C. for 90 min. • 5. The reaction was stopped by the addition of 10 μl HCS. • 6. 25 μl of the reaction mixture was transferred to a 96-well streptavidin-coated FlashPlate™ (NEN) and incubated for 2 hours at room temperature with mild agitation. • 7. The wells were washed three times with 180 μl 2×SSC without any incubation.
8. The amount of probe annealed to biotinylated telomerase products was detected in a scintillation counter.

[1] = Table 1, oligonucleotide has N3′→P5′ phosphoramidate (NP) internucleoside linkages, read-out: IC50 NP
[2] = Table 1, oligonucleotide has N3′→P5′ thio-phosphoramidate (NPS) internucleoside linkages, read-out: IC50 NPS
[3] = Table 2, oligonucleotide has N3′→P5′ thio-phosphoramidate (NPS) internucleoside linkages, read-out: IC50 NPS

T1 sequence (O14746 whole entry): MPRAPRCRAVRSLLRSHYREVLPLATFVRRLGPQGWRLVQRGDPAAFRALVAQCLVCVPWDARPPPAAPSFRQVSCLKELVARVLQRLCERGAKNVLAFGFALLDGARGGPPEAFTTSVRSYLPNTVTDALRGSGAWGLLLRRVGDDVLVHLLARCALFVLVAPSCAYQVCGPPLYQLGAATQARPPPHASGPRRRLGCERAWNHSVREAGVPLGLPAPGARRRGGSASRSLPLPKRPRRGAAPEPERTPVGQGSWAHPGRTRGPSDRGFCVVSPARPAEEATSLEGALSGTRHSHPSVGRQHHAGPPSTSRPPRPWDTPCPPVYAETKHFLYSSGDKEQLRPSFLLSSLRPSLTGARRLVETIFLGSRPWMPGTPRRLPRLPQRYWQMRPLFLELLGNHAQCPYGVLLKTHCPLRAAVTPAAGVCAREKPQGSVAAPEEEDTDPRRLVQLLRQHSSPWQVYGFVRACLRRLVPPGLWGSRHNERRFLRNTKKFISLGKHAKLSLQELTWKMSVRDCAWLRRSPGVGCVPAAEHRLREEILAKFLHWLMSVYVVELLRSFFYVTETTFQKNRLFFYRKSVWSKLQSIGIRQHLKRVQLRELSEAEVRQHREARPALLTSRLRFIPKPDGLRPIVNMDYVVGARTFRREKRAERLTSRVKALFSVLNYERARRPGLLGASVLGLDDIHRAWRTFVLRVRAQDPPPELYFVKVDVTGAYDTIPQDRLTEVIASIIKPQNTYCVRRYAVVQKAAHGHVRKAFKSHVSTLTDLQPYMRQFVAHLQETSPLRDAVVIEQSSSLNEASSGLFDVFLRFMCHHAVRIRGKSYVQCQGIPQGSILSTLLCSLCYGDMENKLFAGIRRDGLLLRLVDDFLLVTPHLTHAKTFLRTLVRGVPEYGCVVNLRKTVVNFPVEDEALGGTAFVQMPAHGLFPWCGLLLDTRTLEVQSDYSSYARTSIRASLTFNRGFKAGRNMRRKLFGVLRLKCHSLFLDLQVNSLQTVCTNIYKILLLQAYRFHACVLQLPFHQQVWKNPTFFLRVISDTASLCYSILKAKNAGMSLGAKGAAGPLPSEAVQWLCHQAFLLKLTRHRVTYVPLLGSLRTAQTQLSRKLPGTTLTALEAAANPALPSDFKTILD
T1 sequence (O60832 whole entry partner): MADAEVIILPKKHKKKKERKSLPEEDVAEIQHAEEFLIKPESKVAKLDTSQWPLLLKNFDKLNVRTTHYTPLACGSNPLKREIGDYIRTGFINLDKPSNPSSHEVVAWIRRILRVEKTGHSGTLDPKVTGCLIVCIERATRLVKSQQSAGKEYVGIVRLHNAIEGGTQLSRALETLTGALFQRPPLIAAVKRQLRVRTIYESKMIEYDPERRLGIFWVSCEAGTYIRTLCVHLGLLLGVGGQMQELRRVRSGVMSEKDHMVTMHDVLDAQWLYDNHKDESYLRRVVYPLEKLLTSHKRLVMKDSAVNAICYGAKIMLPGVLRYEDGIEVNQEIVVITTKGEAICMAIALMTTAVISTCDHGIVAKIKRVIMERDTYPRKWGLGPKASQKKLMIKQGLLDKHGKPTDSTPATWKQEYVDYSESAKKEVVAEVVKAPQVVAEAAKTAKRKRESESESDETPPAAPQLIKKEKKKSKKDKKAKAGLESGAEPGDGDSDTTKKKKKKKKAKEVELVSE
T1 sequence (Q9NPE3 whole entry partner): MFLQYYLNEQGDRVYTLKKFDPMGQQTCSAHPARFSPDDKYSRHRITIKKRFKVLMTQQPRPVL
T1 sequence (Q9NX24 whole entry partner): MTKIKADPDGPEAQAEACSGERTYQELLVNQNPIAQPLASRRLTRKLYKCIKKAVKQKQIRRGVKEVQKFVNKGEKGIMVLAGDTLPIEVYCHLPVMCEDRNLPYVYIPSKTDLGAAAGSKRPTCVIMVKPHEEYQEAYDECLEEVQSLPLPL
T1 sequence (Q9NY12 whole entry partner): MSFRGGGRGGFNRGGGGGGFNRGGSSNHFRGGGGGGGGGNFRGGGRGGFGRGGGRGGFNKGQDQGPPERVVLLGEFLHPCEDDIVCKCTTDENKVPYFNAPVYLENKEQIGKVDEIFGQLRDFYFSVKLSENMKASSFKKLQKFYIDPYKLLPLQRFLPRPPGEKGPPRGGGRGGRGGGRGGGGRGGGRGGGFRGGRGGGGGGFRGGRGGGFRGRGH

Sequence | IC50 [1] | IC50 [2] | IC50 [3]
GGGTTAG (unconjugated): unconjugated oligonucleotide GGGTTAG (SEQ ID: 6), tested with NP and with NPS internucleoside linkages | 0.6 µM | 0.009 µM and 0.005 µM and 0.01 µM and 0.008 µM | 0.009 µM and 0.005 µM and 0.01 µM
GTTAGG (unconjugated): unconjugated oligonucleotide GTTAGG (SEQ ID: 7), NP and NPS forms | 0.47 µM | 0.12 µM | 
TTAGGG (unconjugated): unconjugated oligonucleotide TTAGGG (SEQ ID: 8), NP and NPS forms | 11 µM | 1.2 µM | 1.17 µM and 1 to 55 µM
